How the values were obtained:
[1] = molecular target: T1, basal kinesin ATPase (Drosophila melanogaster, UniProt P17210); experiment: Basal (non microtubule-stimulated) kinesin ATPase rate, coupled enzymatic assay; type: biochemical; conditions: absence of microtubules; up to 136 μM (the highest tested)
T1 construct: kinesin heavy chain fragment containing amino acids 5-351 of the wild type protein; hexahistidine (C); made in house; host or cells: bacterial cells (IPTG induced)
T1 sequence (P17210 5-351): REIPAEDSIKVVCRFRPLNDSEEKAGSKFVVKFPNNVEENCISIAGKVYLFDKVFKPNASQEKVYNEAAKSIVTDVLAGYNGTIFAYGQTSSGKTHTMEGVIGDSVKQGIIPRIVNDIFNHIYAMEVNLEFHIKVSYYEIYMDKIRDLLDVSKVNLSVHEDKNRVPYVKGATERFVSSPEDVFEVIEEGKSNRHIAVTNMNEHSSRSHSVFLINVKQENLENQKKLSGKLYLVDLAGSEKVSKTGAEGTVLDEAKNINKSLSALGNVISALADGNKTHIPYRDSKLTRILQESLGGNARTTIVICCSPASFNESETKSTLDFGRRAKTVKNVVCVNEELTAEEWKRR
Protocol: (§1) All kinetic and binding measurements were performed on a bacterially expressed Drosophila kinesin heavy chain fragment containing amino acids 5-351 of the wild type protein and a hexahistidine tag at the C-terminus. Protein was purified from the soluble fraction of IPTG induced bacterial cells by a single round of affinity chromatography on Ni—NTA-agarose (Qiagen), concentrated by microfiltration, and frozen in small aliquots in liquid nitrogen.
(§2) Initial rate measurements were done at room temperature using a malachite green assay (Geladopoulos et al. (1991) Anal. Biochem., 192: 112-116) modified to work in 96 well microtiter plates and scored on a plate reader at 650 nm. ATP concentration dependence and basal ATPase rate were determined by a coupled enzymatic assay with pyruvate kinase and lactate dehydrogenase monitoring changes in absorbance at 340 nm. Phosphate standards (650 μM-7 μM) were included with each reading.
In contrast, varying the ATP concentration had no effect on the overall shape of the kinetic curves. […] An additional argument against adociasulfate binding at the nucleotide pocket comes from the lack of an inhibitory effect on the basal, non microtubule-stimulated rate of the kinesin ATPases. If adociasulfate interfered with nucleotide binding, or locked the enzyme in a particular nucleotide-bound state, ATP turnover in the absence of microtubule should be decreased.

[2] = molecular target: Myosin II (EDTA); experiment: ATPase activity assay, specificity panel (EDTA activated ATPase); type: biochemical; conditions: read-out: Concentration causing 50% inhibition of enzymatic activity (C50)
Protocol: (§3) One such ATPase assay is described in the examples below. In one preferred embodiment, the ATPase activity assay utilizes 0.3 M PCA (perchloric acid) and malachite green reagent (8.27 mM sodium molybdate II, 0.33 mM malachite green oxalate, and 0.8 mM Triton X-100). To perform the assay, 10 μL of reaction is quenched in 90 μl of cold 0.3 M PCA. Phosphate standards are used so data can be converted to mM inorganic phosphate released.
(§4) When all reactions and standards have been quenched in PCA, 100 μl of malachite green reagent is added to the to relevant wells in e.g., a microtiter plate. The mixture is developed for 10-15 minutes and the plate is read at an absorbance of 650 nm. If phosphate standards were used, absorbance readings can be converted to mM Pi and plotted over time.
[…]

[3] = molecular target: T2, kinesin (K-ADP state) (Drosophila melanogaster, UniProt P17210); experiment: ADP release from kinesin; type: biochemical; conditions: varying concentrations of adociasulfate
T2 construct: kinesin heavy chain fragment containing amino acids 5-351 of the wild type protein; hexahistidine (C); made in house; host or cells: bacterial cells (IPTG induced)
T2 sequence (P17210 5-351): T1 sequence (P17210 5-351)
Protocol: as §1
The percent of ADP released from the enzyme was determined by the methods of Hackney (see, e.g., Hackney (1994) J. Biol. Chem., […]: 16508-16511). Briefly, 80 μM kinesin was preincubated with α-^32PATP at room temperature for 15 min and than stored on ice. 1 μl aliquots of that mixture were diluted into 100 μl of “chase mix” containing 0.5 mg/ml pyruvate kinase, 2 mM phosphoenalpyruvate, and varying concentrations of adociasulfate. […] The amount of ADP that became accessible to pyruvate kinase and was converted to ATP was determined by a thin layer chromatography on PEI-cellulose followed by phosphoimager quantitation.
Microtubule binding to kinesin induced 1,000-fold stimulation of the basal ATPase rate, owing primarily to accelerated ADP release. […] The adociasulfate concentration at 50% of maximum burst is much higher than the K1 determined in steady state microtubule competition assays. […]

[4] = molecular target: TI-γ; experiment: ATPase activity assay, specificity panel; type: biochemical, Thermomyces lanuginosus; conditions: at 2 μM tubulin, read-out: Concentration causing 50% inhibition of enzymatic activity (C50)
Protocol: as §3, §4
TI-γ (a kinesin superfamily member from the fungus Thermomyces lanuginosus) was adsorbed to a glass coverslip and supplemented with a mixture of microtubules, 2 mM Mg-ATP, and sponge extracts in DMSO (5% final concentration). Motility was scored visually on a Zeiss Axioplan microscope sat up for DIC and fitted with an Argus 10 video processor (Hamamatsu).
Initial rate measurements were done at room temperature using a malachite green assay (Geladopoulos et al. (1991) Anal. Biochem., 192: 112-116) modified to work in 96 well microtiter plates and scored on a plate reader at 650 nm. […]

[5] = molecular target: T3, microtubule stimulated ATPase of kinesin (Drosophila melanogaster, UniProt P17210); experiment: Microtubule-stimulated kinesin ATPase, steady state kinetics; type: biochemical
T3 construct: kinesin heavy chain fragment containing amino acids 5-351 of the wild type protein; hexahistidine (C); made in house; host or cells: bacterial cells (IPTG induced)
T3 sequence (P17210 5-351): T1 sequence (P17210 5-351)
Protocol: as §1, §2
Extracts from 268 marine sponges were initially tested for their ability to disrupt normal behavior of microtubules in a gliding motility assay. This screening method allowed immediate distinction between substances that affected microtubule movement and those that caused microtubule depolymerization or breakage. Active extracts from the initial screening were then tested for inhibition of the microtubule-stimulated kinesin ATPase.

[6] = molecular target: rabbit kidney ATPase; experiment: ATPase activity assay, specificity panel; type: biochemical; conditions: highest used inhibitor concentration 136 μM, read-out: Concentration causing 50% inhibition of enzymatic activity (C50)
Protocol: as §3, §4
[…]

[7] = molecular target: T4, kinesin binding to microtubules (Drosophila melanogaster, UniProt P17210); experiment: Kinesin-microtubule co-sedimentation assay with AMP-PNP; conditions: co-sedimentation in the presence of AMP-PNP
T4 construct: kinesin heavy chain fragment containing amino acids 5-351 of the wild type protein; hexahistidine (C); made in house; host or cells: bacterial cells (IPTG induced)
T4 sequence (P17210 5-351): T1 sequence (P17210 5-351)
Protocol: as §1
This was tested by performing a kinesin-microtubule co-sedimentation assay in the presence of a nonhydrolysable ATP analog, AMP-PNP, with or without adociasulfate.

CC1(C)CCC[C@]2(C)O[C@H]3CC[C@@]4(C)[C@@H](CC[C@]5(C)[C@@H]4CC[C@]4(C)c6c(OS(=O)(=O)O)ccc(OS(=O)(=O)O)c6C[C@@H]54)[C@]3(C)CC[C@@H]12 [adociasulfate]
Effect on basal ATPase rate [1]: did not inhibit the basal ATPase rate | IC50 [2]: 75 µM | ADP release from kinesin [3]: bursts of ADP release were observed | IC50 [4]: 2 µM | Mode of inhibition ([5]; steady state kinetic measurements, varying microtubule concentration): competitive with microtubules | Vmax ([5]; varying ATP concentration, higher adociasulfate concentrations): progressively lower | IC50 [6]: > 136 µM | Effect on binding of kinesin to microtubules [7]: abolished binding of kinesin to microtubules

Source: patent US7252950B1, “Assays for detecting modulators of cytoskeletal function” (priority 1997, dated 2007)
